# Measured values published in PMC6222496 (Molecules : A Journal of Synthetic Chemistry and Natural …, 2018).
# Like-named read-outs stand apart in the source and are kept apart here.
# Columns and labels:
# mice [1] = conditions: Sal A 3–10 mg/kg, for 30 min; cited from earlier work
# rats [2] = conditions: 0.3 mg/kg; cited from earlier work
# rats [3] = test system: rats
# human KOPr [4] = conditions: cited from earlier work
# hKOR = target: T1, hKOR (Homo sapiens, UniProt P41145); assay: cell-based; format: cell-based
# T1 construct: host or cells: U2OS (PathHunter U2OS-hKOR-βarrestin2-DX)
# T1 sequence (P41145 whole entry): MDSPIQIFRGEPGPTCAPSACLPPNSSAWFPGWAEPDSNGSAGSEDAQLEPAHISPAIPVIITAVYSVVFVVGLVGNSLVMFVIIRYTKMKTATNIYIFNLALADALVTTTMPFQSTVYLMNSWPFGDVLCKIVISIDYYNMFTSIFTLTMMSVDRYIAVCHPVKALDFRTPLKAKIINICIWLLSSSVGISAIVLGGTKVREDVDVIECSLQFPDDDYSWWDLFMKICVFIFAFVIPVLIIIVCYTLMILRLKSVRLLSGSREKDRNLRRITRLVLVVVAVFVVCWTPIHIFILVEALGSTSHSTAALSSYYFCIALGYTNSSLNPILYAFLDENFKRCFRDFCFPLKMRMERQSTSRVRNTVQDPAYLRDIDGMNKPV
# T1 sequence (P32121 whole entry partner): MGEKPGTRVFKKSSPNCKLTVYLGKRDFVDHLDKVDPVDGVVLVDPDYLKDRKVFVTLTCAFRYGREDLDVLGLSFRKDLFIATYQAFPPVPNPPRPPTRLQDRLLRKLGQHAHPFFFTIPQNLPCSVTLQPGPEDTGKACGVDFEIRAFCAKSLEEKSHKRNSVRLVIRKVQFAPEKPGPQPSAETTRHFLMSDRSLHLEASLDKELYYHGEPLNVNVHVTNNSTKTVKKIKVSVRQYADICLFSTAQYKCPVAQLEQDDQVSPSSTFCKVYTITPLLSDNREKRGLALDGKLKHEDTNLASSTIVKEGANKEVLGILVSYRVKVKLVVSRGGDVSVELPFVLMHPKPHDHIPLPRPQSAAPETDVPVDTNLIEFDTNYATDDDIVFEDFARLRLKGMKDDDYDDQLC
# Sprague-Dawley rats [5] = conditions: rat, in vivo; cited from earlier work
# rats [6] = test system: rats; remark: listed apart in the source
# B6.SJL mice [7] = conditions: mouse, in vivo; for EC50 (antinociception, % MPE): sc
# B6.SJL mice [8] = format: in vivo, mouse
# rats [9] = conditions: cited from earlier work
# rats [10] = conditions: cited from earlier work; for pro-depressive effects: 2-ethoxymethyl ether Sal B 0.3 mg/kg, β-tetrahydropyran Sal B 2 mg/kg
# B6.SJL mice [11] = conditions: cited from earlier work; for duration of action (antinociceptive effects): 1 mg/kg
# Sprague Dawley rats [12] = conditions: rat, in vivo; cited from earlier work
# mice [13] = conditions: mouse, in vivo; cited from earlier work
# drug naïve rats = conditions: cited from earlier work
# Sprague-Dawley rats [14] = conditions: rat, in vivo; cited from earlier work; remark: listed apart in the source
# [15] = test system: P-glycoprotein efflux pump; conditions: cited from earlier work
# mice [16] = test system: mice
# KOPr [17] = target: T2, KOPr (Homo sapiens, UniProt P41145); design: method as in PMID 25320048; conditions: human embryonic kidney cells; cited from earlier work
# T2 construct: host or cells: CHO (HitHunter cell line)
# T2 sequence (P41145 whole entry): as the sequence (P41145 whole entry) above
# rats [18] = conditions: 0.16 mg/kg; cited from earlier work
# Rhesus macaques = conditions: 0.01–0.1 mg/kg i.v.; cited from earlier work
# mice [19] = conditions: 1–3.2 mg/kg; cited from earlier work
# rhesus monkeys = conditions: rhesus monkey, in vivo; cited from earlier work
# rat KOPr = conditions: cited from earlier work
# Sprague Dawley rats [20] = conditions: rat, in vivo
# rats [21] = conditions: 0.1 mg/kg; cited from earlier work
# B6.SJL mice [22] = conditions: cited from earlier work
# Sprague-Dawley rats [23] = assay: Expression of behavioral sensitization to cocaine; format: in vivo, rat; conditions: 0.3 mg/kg i.p. on day 10, 45 min before cocaine 20 mg/kg
# rats [24] = conditions: rat, in vivo
# Sprague-Dawley rats [25] = assay: Cocaine-induced hyperactivity; format: in vivo, rat; conditions: 0.3 mg/kg i.p., 45 min prior to cocaine 20 mg/kg
# mice [26] = test system: mice; design: method as in PMID 28263712; conditions: chronic escalation drinking; cited from earlier work
# mice [27] = test system: mice; design: method as in PMID 28263712; conditions: 3 mg/kg; cited from earlier work
# rats [28] = assay: Forced swim test; format: in vivo, rat; conditions: 0.3 mg/kg i.p., 45 min before test
# Method: The FST apparatus consisted of a cylinder (44 cm high and 20 cm in diameter) filled to 35 cm with water maintained at 25 ± 1 °C. On the habituation day, the rats were placed in the swim chamber for 15 min and the following day were administered either with Mesyl Sal B (0.3 mg/kg, i.p.) or the vehicle (75% DMSO, 1 mL/kg, i.p.) and placed in the swim chamber45 min later. The forced swimming behavior was recorded by a video camera and the climbing, swimming, or immobility behaviors were recorded for 5 min. Data were analyzed using the SMART software (version 3.0; PanLab, Barcelona, Spain).
# KOPr [29] = target: T2, KOPr; assay: cell-based
# human KOPr [30] = conditions: cited from earlier work; remark: listed apart in the source
# Sprague Dawley rats [31] = assay: Sucrose self-administration / sucrose intake; format: in vivo, rat; conditions: 0.3 and 1.0 mg/kg i.p., 45 min pretreatment
# Method: For sucrose reinforcement tests, rats were maintained at approximately 85% of their initial feeding weights with free access to water throughout the experiment. Rats were trained to orally self-administer a 10% sucrose solution in eight modular test chambers (Med Associates) as previously described. Rats were trained to self-administer sucrose orally using an auto-shaping procedure (45 min daily for ten days). Once stable responding was achieved, the animals were maintained on a Fixed Ratio 1 (FR1) schedule of reinforcement where depression of the active lever (left lever) led to the delivery of sucrose solution. Following oral acquisition, the response requirements were increased to an FR5 schedule of reinforcement. Daily 1 h sessions were conducted until there was less than 20% variation in responding for three consecutive days. The animals on stable FR5 reinforcements were subjected to the sucrose reinforcement test. On the test day, rats received either vehicle (75% DMSO, 1 mL/kg, i.p.) or Mesyl Sal B (0.3, 1.0 mg/kg, i.p.) and 45 min later, sucrose reinforced lever-press responding was recorded for 60 min.
# [32] = 2 mg/kg i.p., 5 min before formaldehyde
compound,measurement,setting,value
RB-64,motor coordination in rotarod performance test,mice [1],did not cause any motor deficits
"COC(=O)[C@@H]1C[C@H](OC(C)=O)C(=O)[C@H]2[C@@]1(C)CC[C@H]1C(=O)O[C@H](c3ccoc3)C[C@]21C [Sal A, Salvinorin A]",aversion in CTA experiments,rats [2],no aversion
same,time spent in the open arm,rats [3]; 1 mg/kg,significantly decreased
same,signaling bias,human KOPr [4]; human receptor,significantly biased towards the β-arrestin2 pathway
same,Bias Factor,hKOR,0.35
same,locomotor activity produced by acute cocaine administration,Sprague-Dawley rats [5],increased
same,taste aversion (saccharin consumption on test day),rats [6]; 0.3 mg/kg,no effect
same,Emax,B6.SJL mice [7],87%
same,"EC50 (antinociception, % MPE)",B6.SJL mice [7],2.1 mg/kg
same,phase 1 nociceptive pain (0–15 min),B6.SJL mice [8]; [32],significant attenuation
same,phase 2 inflammatory pain (20–60 min),B6.SJL mice [8]; [32],significant attenuation
same,formaldehyde-induced paw edema,"B6.SJL mice [8]; 60 min after formaldehyde, Sal A 2 mg/kg i.p.",significantly reduced
same,cocaine-prime induced cocaine seeking,rats [9]; rats,attenuate
same,cocaine-prime induced reinstatement of drug seeking,rats [9]; rats,attenuate
same,depressive effects,"rats [10]; 0.25–2 mg/kg, rats",induces depressive effects
same,anti-depressive and anxiolytic effects,"rats [10]; 10–1000 μg/kg, rats",potent anti-depressive and anxiolytic effects
same,duration of action (antinociceptive effects),"B6.SJL mice [11]; mice, i.p.",15 min
same,sucrose self-administration,Sprague Dawley rats [12],no effects
same,climbing behavior (motor coordination),mice [13],rapidly disrupt climbing behavior
same,"spontaneous locomotion, open field","drug naïve rats; 0.3 mg/kg, rats",did not alter
same,cocaine-induced behavioral sensitization,Sprague-Dawley rats [14],attenuated
same,P-glycoprotein efflux pump substrate,[15],substrate
same,motor impairment (latency to fall),"mice [16]; 2 mg/kg i.p., at 2 and 15 min",significant motor impairment
same,signaling bias,KOPr [17],balanced agonist
same,anxiety-related effects,rats [18],anxiolytic effects
same,sedation,Rhesus macaques,sedative effect
same,place conditioning at higher doses,mice [19],aversion
same,motor coordination in rotarod performance test,mice [1],induced motor incoordination
CCC12CCN(CC3(O)CC3)C(Cc3ccc(O)cc31)C2(C)C (stereo not drawn) [bremazocine],cocaine self-administration,rhesus monkeys,decreased
same,food reinforcements,rhesus monkeys,decreased
CN(C(=O)/C=C/c1ccoc1)[C@@H]1CC[C@@]2(O)[C@H]3Cc4ccc(O)c5c4[C@@]2(CCN3CC2CC2)[C@H]1O5 [nalfurafine],signaling bias,human KOPr [4],extreme G-protein biased signaling
same,signaling bias,rat KOPr,bias to a much lesser extent
CC[C@]12CCN(CC3CC3)[C@H](C(=O)c3ccc(O)cc31)[C@@H]2C [ethylketazocine],cocaine self-administration,rhesus monkeys,decreased
same,food reinforcements,rhesus monkeys,decreased
"Oc1ccc2c3c1O[C@H]1c4[nH]c5c(c4C[C@@]4(O)[C@@H](C2)N(CC2CC2)CC[C@]314)C[C@@]1(O)[C@H]2Cc3ccc(O)c4c3[C@@]1(CCN2CC1CC1)[C@H]5O4 [nor-BNI, Nor-binaltorphimine]",effect on U50488-induced decrease in recognition index,Sprague Dawley rats [20],prevented
CCOCO[C@H]1C[C@@H](C(=O)OC)[C@]2(C)CC[C@H]3C(=O)O[C@H](c4ccoc4)C[C@]3(C)[C@H]2C1=O [2-ethoxymethyl ether Sal B],aversive effects in the CPA paradigm,rats [21],did not show aversive effects
same,cocaine-prime induced cocaine seeking,rats [9]; rats,attenuate
same,pro-depressive effects,rats [10],did not
COC(=O)[C@@H]1C[C@H](OC2CCCCO2)C(=O)[C@H]2[C@@]1(C)CC[C@H]1C(=O)O[C@H](c3ccoc3)C[C@]21C (stereo partly drawn) [β-tetrahydropyran Sal B],cocaine-prime induced cocaine seeking,rats [9]; rats,attenuate
same,pro-depressive effects,rats [10],did not
same,antinociceptive effects,B6.SJL mice [22]; intraplantar 2% formaldehyde,potent antinociceptive effects
same,"potency and efficacy, cumulative dose-response",B6.SJL mice [11]; compared with Sal A,more potent and more efficacious than Sal A
spirobutyrolactone Sal B,formaldehyde-induced paw edema,B6.SJL mice [22],significantly reduced
same,nociceptive phase of pain,B6.SJL mice [22],did not reduce
same,"antinociceptive effects, inflammatory phase",B6.SJL mice [22]; intraplantar 2% formaldehyde,potent antinociceptive effects
"COC(=O)[C@@H]1C[C@H](OS(C)(=O)=O)C(=O)[C@H]2[C@@]1(C)CC[C@H]1C(=O)O[C@H](c3ccoc3)C[C@]21C [Mesyl Sal B, (2S,4aR,6aR,7R,9S,10aS,10bR)-9-(methanesulfonyloxy)-2-(3-furanyl)dodecahydro-6a, 10b-dimethyl-4,10-dioxy-2H-naptho [2,1-c]pyran-7-carboxylic acid methyl ester]",expression of cocaine behavioral sensitization,Sprague-Dawley rats [23],suppresses
same,time spent in the open arm,"rats [3]; rat, in vivo",no effect
same,Bias Factor,hKOR,0.61
same,EC50,hKOR,236 nM
same,β-Arrestin Recruitment (PathHunter) Efficacy,hKOR,90.2%
same,time spent in the drug-paired chamber,rats [24],did not significantly alter
same,cocaine-induced hyperactivity,Sprague-Dawley rats [25],suppressed
same,taste aversion (saccharin consumption on test day),"rats [6]; rat, in vivo",did not induce taste aversion
same,alcohol intake,mice [26],attenuates
same,Emax,B6.SJL mice [7],38%
same,"EC50 (antinociception, % MPE)",B6.SJL mice [7],3.0 mg/kg
same,sucrose or saccharin intake,mice [27],no effect
same,pain score,"B6.SJL mice [8]; mouse, in vivo",small but significant decrease
same,phase 1 nociceptive pain (0–15 min),"B6.SJL mice [8]; mouse, in vivo",minimally effective
same,phase 2 inflammatory pain (20–60 min),"B6.SJL mice [8]; mouse, in vivo",reducing phase 2 pain at the 30 min time point
same,formaldehyde-induced paw edema,"B6.SJL mice [8]; mouse, in vivo, ip, 2 mg/kg",no significant reduction
same,cocaine-prime induced reinstatement of drug seeking,"rats [9]; rat, in vivo",attenuate
same,duration of action (antinociceptive effects),"B6.SJL mice [11]; mouse, in vivo, ip",60 min
same,time at which effects are seen (onset of action),"B6.SJL mice [11]; mouse, in vivo",30 to 60 min
same,"locomotor activity, spontaneous open field","drug naïve rats; rat, in vivo",no significant effect
same,swimming time,rats [28],significant decrease
same,time spent immobile,rats [28],significant increase
same,recognition index (RI) value,Sprague Dawley rats [20],No change
same,EC50,KOPr [29],0.12 nM
same,Ki,human KOPr [30],2.3 ± 0.1 nM
same,sucrose intake (sucrose-reinforced responding),Sprague Dawley rats [31],no effect
same,motor impairment (latency to fall),"mice [16]; mouse, in vivo",no motor impairment
